Measured values taken from US20240207353A1, “USE OF PEPTIDE AMIDE COMPOUND IN PREPARATION OF DRUG FOR TREATING PRURITUS” (XIZANG HAISCO PHARMACEUTICAL CO., LTD., priority 2021, published 2024).

Tests used:
[1] = system: compound 48/80-induced scratching behaviour in mice; experiment: Antipruritic effect in mouse models with pruritus induced by compound 48/80, intravenous administration; assay type: in vivo, ICR mice
Method: (§1) ICR mice (males) from Beijing Vital River Laboratory Animal Technology Co., Ltd. were randomly grouped, and then administered intravenously with different doses of compound 1 or normal saline. After 15 min, 50 μg of compound 48/80 (Sigma, Cat #: C2313) was injected subcutaneously into the nape of the mice, and the times of scratching of mice within 30 min after injection of compound 48/80 was immediately recorded. The obtained data were processed according to the formula [(times of scratching in solvent control group−times of scratching in administration group)/times of scratching in solvent control group×100] to calculate the inhibition ratio on scratching. Statistical analysis was performed with Graphpad Prism 8 software, and fitting was performed to obtain the ED50 value.

[2] = system: serotonin hydrochloride-induced scratching behaviour in rats; experiment: Antipruritic effect of single administration in rat models with pruritus induced by serotonin hydrochloride; assay type: in vivo, SD rats; conditions: intravenous
Method: SD rats (males) from Beijing Vital River Laboratory Animal Technology Co., Ltd. were randomly grouped, and then administered intravenously with different doses of compound 1 or normal saline. After 15 min, 10 μL of 2% serotonin hydrochloride (Sigma) was injected intradermally into the nape of the rats, and the times of scratching of rats within 60 min after injection of serotonin hydrochloride was immediately recorded. The obtained data were processed according to the formula [(times of scratching in solvent control group−times of scratching in administration group)/times of scratching in solvent control group×100] to calculate the inhibition ratio on scratching. Statistical analysis was performed with Graphpad Prism 8 software, and fitting was performed to obtain the ED50 value.

[3] = system: compound 48/80-induced scratching behaviour in mice; experiment: Antipruritic effect by nasal drip in mouse models with pruritus induced by compound 48/80; assay type: in vivo, ICR mice
Method: as §1, with “then” for “then administered intravenously with”, “saline were administered by nasal drip.” for “saline.”

[4] = system: haemodialysis subjects with pruritus; experiment: Phase II clinical study of safety, pharmacokinetics and efficacy in haemodialysis subjects; assay type: in vivo, human
Method: For compound 1, a multi-centre, randomized, double-blind, placebo-controlled phase II clinical trial for evaluating the safety, pharmacokinetics and efficacy of compound 1 injection in haemodialysis subjects was performed. This study was divided into two phases.
Phase I was a dose-escalation, randomized, double-blind, placebo-controlled study of multiple intravenous administration within 1 week in haemodialysis subjects, in which 40 haemodialysis subjects were scheduled to be enrolled into 4 dose groups: 0.05 μg/kg, 0.15 μg/kg, 0.30 μg/kg and 0.80 μg/kg, with 10 subjects in each group (including 2 subjects in placebo group), and the experimental drug was administered 3 times in each dose group on D1, D3 and D5, respectively.
Phase II was a randomized, double-blind, placebo-controlled study of administration for 12 weeks in haemodialysis subjects with moderate or more severe pruritus. According to the results of phase I study, two dose groups (0.3 μg/kg and 0.6 μg/kg) and a placebo group as control were selected for phase II study, in which 90 haemodialysis subjects with moderate or more severe pruritus were scheduled to be enrolled and assigned to the above-mentioned three groups according to a ratio of 1:1:1, with 30 subjects scheduled to be enrolled in each group, and compound 1 injection or placebo was administered, respectively.

[5] = 15 min before compound 48/80 s.c., scratching within 30 min
[6] = 15 min before serotonin hydrochloride intradermal, scratching within 60 min
[7] = maintenance haemodialysis, dose of 0.05 μg/kg to 0.80 μg/kg
[8] = maintenance haemodialysis, multiple times a week for consecutive 12 weeks
[9] = phase I, 0.05-0.80 μg/kg i.v. on D1, D3, D5, each group after treatment
[10] = phase II, 0.3 and 0.6 μg/kg, 12 weeks, each group after treatment

With `CC(=O)N1CC2(CCN(C(=O)[C@@H](CCCCN)NC(=O)[C@@H](CC(C)C)NC(=O)[C@@H](Cc3ccccc3)NC(=O)[C@H](N)Cc3ccccc3)CC2)C1` [Compound 1, (2R)—N-[(1R)-1-(2-acetyl-2,7-diazaspiro[3.5]nonane-7-carbonyl)-5-amino-pentyl]-2-[[(2R)-2-[[(2R)-2-amino-3-phenyl-propionyl]amino]-3-phenylpropionyl]amino]-4-methyl-pentanamide] the “inhibition of compound 48/80-induced scratching behaviour” value [1] was “inhibited the compound 48/80-induced scratching behaviour in mice in a dose-dependent manner”, the “ED50 value (inhibition ratio on scratching)” value [1, 5] was 0.09 mg/kg and the antipruritic effective dose [1, 5] was 0.03 mg/kg. For the same molecule, the “inhibition of serotonin hydrochloride-induced scratching behaviour” value [2] was “inhibited the serotonin hydrochloride-induced scratching behaviour in rats in a dose-dependent manner”, the “ED50 value (inhibition ratio on scratching)” value [2, 6] was 0.03 mg/kg and the antipruritic effective dose [2, 6] was 0.03 mg/kg. For the same molecule, the “inhibition of compound 48/80-induced scratching behaviour” value [3] was “inhibited the compound 48/80-induced scratching behaviour in mice in a dose-dependent manner”, the “ED50 value (inhibition ratio on scratching)” value [3, 5] was 2.72 mg/kg and the antipruritic effective dose [3, 5] was 0.3 mg/kg. The “improvement compared to the placebo group” value ([4]; 0.30 μg/kg group) was “more significant improvement”, the “maintenance of therapeutic effects after discontinuation” value ([4]; 0.30 μg/kg group) was “good maintenance of therapeutic effects after discontinuation” and the safety [4, 7] was “generally safe”. The “serious adverse events related to the experimental drug” value [4, 7] was “no serious adverse events related to the experimental drug”, the “withdrawal tendency after discontinuation” value [4, 7] was “no obvious withdrawal tendency after discontinuation” and the “overall quality of life” value [4, 8] was “improved”. The “pruritus symptoms in patients with chronic kidney diseases” value [4, 8] was “could be effectively relieved”, the NRS scores [4, 9] was “all decreased compared to baseline” and the “total score of Skindex-16 scale” value [4, 9] was “decreased”. For the same molecule, the NRS scores [4, 10] was “all decreased compared to baseline”, the “total score and dimension scores of 5-D scale” value [4, 10] was “all decreased compared to baseline” and the “total score and dimension scores of Skindex-16 scale” value [4, 10] was “all decreased compared to baseline”.
